Test results from article PMC9244950 (ACS Omega, 2022).
Converted amounts (≈) assume the structure as drawn.

Assays:
[1] = system: Mtb H37Rv strain; experiment: microbe, parasite or virus in culture; assay type: cell-based, Mycobacterium tuberculosis
[2] = In vitro cytotoxicity, THP-1 cell viability after 3 days; assay type: cell-based; details: human, THP-1 cells
[3] = molecular target: wild-type InhA (Mycobacterium tuberculosis, UniProt P9WGR1); experiment: InhA inhibition assay; assay type: biochemical
wild-type InhA, sequence (P9WGR1 whole entry, looked up): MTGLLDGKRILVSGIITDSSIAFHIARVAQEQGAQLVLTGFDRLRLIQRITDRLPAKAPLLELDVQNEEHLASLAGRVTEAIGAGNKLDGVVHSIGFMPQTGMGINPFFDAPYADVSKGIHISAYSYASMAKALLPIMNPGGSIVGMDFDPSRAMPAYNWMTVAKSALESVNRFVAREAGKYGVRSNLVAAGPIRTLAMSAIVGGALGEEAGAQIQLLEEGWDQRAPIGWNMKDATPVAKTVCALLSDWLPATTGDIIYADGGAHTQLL

[4] = Mtb H37Rv, dual read-out (OD590 and fluorescence)
[5] = Mycobacterium tuberculosis, H37RV
[6] = Mycobacterium tuberculosis, H37RV, Mtb H37Rv, dual read-out (OD590 and fluorescence)

Compound | IC50 [1, 4] | MIC [1, 4] | MIC [1, 5] | IC50 [1, 6] | IC50 at 3 days [2] | IC50 [3]
2-(4-Methyl-2-oxo-2H-chromen-6-yl)isoindoline-1,3-dione [Compound 30] | > 200 µM | > 200 µM | – | – | – | –
O=C1c2ccccc2C(=O)N1c1ccc(F)cc1 [Compound 2, 2-(4-Fluorophenyl)isoindoline-1,3-dione] | – | – | > 200 µM | 197 µM | – | –
Cc1ccccc1N1C(=O)c2ccccc2C1=O [Compound 3, 2-(o-Tolyl)isoindoline-1,3-dione] | – | – | 194 µM (≈ 46 µg/mL) | 68 µM | – | –
O=C1c2ccccc2C(=O)N1c1ccc(F)c(Cl)c1 [Compound 4, 2-(3-Chloro-4-fluorophenyl)isoindoline-1,3-dione] | – | – | 186 µM (≈ 51.3 µg/mL) | 64 µM | – | –
Cc1cccc(N2C(=O)c3ccccc3C2=O)c1 [Compound 5, 2-(m-Tolyl)isoindoline-1,3-dione] | – | – | 100 µM (≈ 23.7 µg/mL) | 29 µM | > 150 µM | –
O=C1c2ccccc2C(=O)N1c1ccc(Cl)cc1 [Compound 6, 2-(4-Chlorophenyl)isoindoline-1,3-dione] | – | – | 94 µM (≈ 24.2 µg/mL) | 28 µM | > 150 µM | –
O=C1c2ccccc2C(=O)N1c1cccc(Cl)c1 [Compound 7, 2-(3-Chlorophenyl)isoindoline-1,3-dione] | – | – | 96 µM (≈ 24.7 µg/mL) | 26 µM | > 150 µM | –
O=C1c2ccccc2C(=O)N1c1ccc(Br)cc1 [Compound 8, 2-(4-Bromophenyl)isoindoline-1,3-dione] | – | – | 102 µM (≈ 30.8 µg/mL) | 31 µM | > 150 µM | –
O=C1c2ccccc2C(=O)N1c1cccc([N+](=O)[O-])c1 [Compound 10, 2-(3-Nitrophenyl)isoindoline-1,3-dione] | – | – | > 200 µM | 121 µM | – | –
O=C(O)CN1C(=O)c2ccccc2C1=O [Compound 11, 2-(1,3-Dioxoisoindolin-2-yl)acetic Acid] | – | – | 164 µM (≈ 33.6 µg/mL) | 55 µM | – | –
Cc1ccnc(N2C(=O)c3ccccc3C2=O)c1 [Compound 12, 2-(4-Methylpyridin-2-yl)isoindoline-1,3-dione] | 160 µM | – | > 200 µM | 148 µM | – | –
Cc1ccc(N2C(=O)c3ccccc3C2=O)nc1 [Compound 13, 2-(5-Methylpyridin-2-yl)isoindoline-1,3-dione] | 148 µM | – | > 200 µM | 160 µM | – | –
O=C1c2ccccc2C(=O)N1c1ccc(Br)cn1 [Compound 14, 2-(5-Bromopyridin-2-yl)isoindoline-1,3-dione] | – | – | > 200 µM | 90 µM | – | –
COc1ccc(-c2nnc(N3C(=O)c4ccccc4C3=O)s2)cc1 [Compound 16, 2-(5-(4-Methoxyphenyl)-1,3,4-thiadiazol-2-yl)isoindoline-1,3-dione] | – | – | 182 µM (≈ 61.4 µg/mL) | 62 µM | – | –
O=C1c2ccccc2C(=O)N1c1nnc(-c2ccccc2)s1 [Compound 19, 2-((5-Phenyl)-1,3,4-thiadiazol-2-yl)isoindoline-1,3-dione] | – | – | > 200 µM | > 200 µM | – | –
O=C(NN1C(=O)c2ccccc2C1=O)c1ccc(O)cc1 [Compound 20, N-(1,3-Dioxoisoindoline-2-yl)-4-hydroxybenzamide] | – | – | > 200 µM | 101 µM | – | –
O=C1c2ccccc2C(=O)N1c1nnc(-c2cccc(Br)c2)s1 [Compound 21, 2-(5-(3-Bromophenyl)-1,3,4-thiadiazol-2-yl)isoindoline-1,3-dione] | – | – | > 200 µM | 100 µM | – | –
COc1ccccc1-c1nnc(N2C(=O)c3ccccc3C2=O)s1 [Compound 22, 2-(5-(2-Methoxyphenyl)-1,3,4-thiadiazol-2-yl)isoindoline-1,3-dione] | – | – | 180 µM (≈ 60.7 µg/mL) | 58 µM | – | –
Cc1cccc(-c2nnc(N3C(=O)c4ccccc4C3=O)s2)c1 [Compound 23, 2-(5-(m-Tolyl)-1,3,4-thiadiazol-2-yl)isoindoline-1,3-dione] | – | – | 123 µM (≈ 39.5 µg/mL) | 43 µM | – | –
O=C1c2ccccc2C(=O)N1c1nnc(Cc2ccccc2)s1 [Compound 24, 2-(5-Benzyl--1,3,4-thiadiazol-2-yl)isoindoline-1,3-dione] | – | – | > 200 µM | > 200 µM | – | –
O=C1c2ccccc2C(=O)N1c1nnc(-c2ccccc2F)s1 [Compound 25, 2-(5-(2-Fluorophenyl)-1,3,4-thiadiazol-2-yl)isoindoline-1,3-dione] | – | – | > 200 µM | 133 µM | – | –
O=C1c2ccccc2C(=O)N1c1nnc(-c2cccc(Cl)c2)s1 [Compound 26, 2-(5-(3-Chlorophenyl)-1,3,4-thiadiazol-2-yl)isoindoline-1,3-dione] | – | – | 192 µM (≈ 65.6 µg/mL) | 80 µM | – | –
O=C1c2ccccc2C(=O)N1c1nnc(-c2ccc(I)cc2)s1 [Compound 27, 2-(5-(4-Iodophenyl)-1,3,4-thiadiazol-2-yl)isoindoline-1,3-dione] | – | – | 64 µM (≈ 27.7 µg/mL) | 18 µM | > 200 µM | 8.65 µM
O=C1c2ccccc2C(=O)N1c1nnc(-c2ccccc2[N+](=O)[O-])s1 [Compound 28, 2-(5-(2-Nitrophenyl)-1,3,4-thiadiazol-2-yl)isoindoline-1,3-dione] | – | – | > 200 µM | 171 µM | – | –
Cc1nnc(N2C(=O)c3ccccc3C2=O)s1 [Compound 29, 2-(5-Methyl-1,3,4-thiadiazol-2-yl)isoindolin-1,3-dione] | – | – | > 200 µM | 100 µM | – | –
NNC(=O)c1ccncc1 [Isoniazid, reference compound] | – | – | 0.38 µM (≈ 0.0521 µg/mL) | 0.15 µM | – | –
